Data on 7 compounds can be found in paper PMC7763008, “Antimicrobial, Anticancer and Multidrug-Resistant Reversing Activity of Novel Oxygen-, Sulfur- and Selenoflavones and Bioisosteric Analogues” (Pharmaceuticals, 2020).

Broadly, the IC50 is the concentration needed to halve the response being measured. Usually viability stands for a read-out of living cells in per cent, often relative to untreated cells. The term inhibition denotes the percentage by which the read-out fell short of the control. A higher inhibition goes with strong suppression.

Data set [1] concerns the target P-gp (ABCB1) efflux pump in MDR Colo 320 colon adenocarcinoma cells (Homo sapiens, UniProt P08183). Kind of data set: Rhodamine 123 accumulation assay (MDR efflux pump inhibition, flow cytometry). The conditions noted are these: for FAR (fluorescence activity ratio): MDR Colo 320 vs sensitive Colo 205; for FAR Quotient (%): FAR of compound / FAR of verapamil (20 μM) x 100; for Increase in efflux pump inhibitory activity of naphthyl vs corresponding phenyl derivative: naphthyl-substituted vs phenyl-substituted chalcogen flavone, 20 µM data. (In flow cytometry, cells or beads pass a laser one at a time.)
Experimental: The P-glycoprotein (P-gp) inhibitory properties of the tested flavone derivatives were evaluated in a rhodamine R123 accumulation assay in two different concentrations.
This is a fluorescence-based detection assay which uses verapamil as a reference inhibitor of P-gp efflux pump. […] Compounds (1 μL and 10 μL from a stock solution of 1 mM) were added to the medium to achieve solutions with final concentrations of 2 μM and 20 μM respectively, followed by incubation of the sample for 10 min at room temperature. […] The fluorescence intensity of the cell population was measured with a Partec CyFlow flow cytometer (Partec, Munster, Germany). Verapamil (20 μM) was employed as a positive control. […] The fluorescence activity ratio (FAR) was calculated employing the following equation [20, 26]:FAR = (MDRtreated/MDRcontrol)/(sensitivetreated/ sensitivecontrol)(1)
FAR Quotient % was calculated as follows:Quotient = (FARcompound/FARverapamil) × 100(2)

The subject of data set [2] is Colo 320/MDR-LRP human colonic adenocarcinoma cell line (multidrug resistant). Briefly: MTT antiproliferative activity assay, Colo 320. Format: cell-based. The conditions noted are these: 5 × 10^3 cells/well, read-out: Antiproliferative activity, B—Colo 320 IC50. The text has this: (§1) Three cell lines have been used in this work: (i), the doxorubicin-sensitive Colo 205 (ATCC-CCL-222) human colonic adenocarcinoma cell line; (ii) the multidrug resistant Colo 320/MDR-LRP expressing P-gp (MDR1)-LRP (ATCC-CCL-220.1) human colonic adenocarcinoma cell line; and the MRC-5 human embryonal lung fibroblast cell line (ATCC CCL-171). The three cell lines were purchased from LGC Promochem, Teddington, UK.
(§2) Colo 205 (ATCC-CCL-222) and Colo 320/MDR-LRP expressing P-gp (MDR1)-LRP (ATCC-CCL-220.1 human colon adenocarcinoma cell lines. As previously described, the cells were cultured in RPMI 1640 medium supplemented with 10% heat-inactivated fetal bovine serum, 2 mM L-glutamine, 1 mM Na-pyruvate, and 100 mM Hepes. The cell lines were incubated at 37 °C, in a 5% CO2, 95% air atmosphere. The semi-adherent human colon cancer cells were detached with Trypsin-Versene (EDTA) solution for 5 min at 37 °C [20].
(§3) The influence of synthetic flavonoid derivatives (compounds 1–6) on the doxorubicin-sensitive Colo 205, multidrug resistant Colo 320/MDR-LRP adenocarcinoma and MRC-5 cell lines was evaluated employing the MTT metabolic activity assay, using a procedure described in Supplementary Materials and in previous works, and applying the appropriate formulas to calculate the cell growth inhibition and the selectivity index (SI), as well as the criterion to determine whether a compound is strongly or moderately selective.
(§4) Briefly, the serial dilutions in culture medium required for the MTT metabolic assay (ranging from 100 to 0.195 µM) were freshly prepared before the assay. The stock solutions (10 mM) of the tested compounds were prepared in pure DMSO and the final concentration of DMSO was adjusted to less than 1% threshold in the biological experiments. The concentration-dependent growth inhibition was evaluated in 96-well flat-bottomed microtiter plates. Doxorubicin (DOXO) was employed as a positive control whilst culture medium containing cells was used as a negative control.
(§5) In the case of the colonic adenocarcinoma cells, two-fold serial dilutions of the flavone compounds were prepared in 100 μL of RPMI 1640, horizontally. Furthermore, the semi-adherent colonic adenocarcinoma cells were treated with Trypsin-Versene (EDTA) solution. Then, cells were adjusted to a density of 5 × 10^3/well for antiproliferative assay and 1 × 10^4/well for the estimation of cytotoxic activity in 100 µL of medium. The cells were added to each well except to the medium control wells. The culture plates were subsequently incubated at 37 °C for 24 h and 72 h, respectively; 20 μL of MTT solution (thiazolyl blue tetrazolium bromide, Sigma) were added to each well from MTT stock solution (5 mg /mL) after incubation. After 4 h of incubation at 37 °C, 100 μL of sodium dodecyl sulfate (SDS) solution (10% in 0.01 M HCl) was added to each well and all plates were incubated at 37 °C overnight. Finally, cell growth was determined by measuring the optical density (OD) at 540 nm (ref. 630 nm) with Multiscan EX ELISA reader (Thermo Labsystems, Cheshire, WA, USA).
(§6) The inhibition of the cell growth was determined according to the formula mentioned elsewhere. Finally, the cell viability and IC50 values for every tested compound and doxorubicin were calculated using GraphPad Prism, version 5.03.
(Formazan colour is commonly taken as a measure of viable cells.)

For data set [3], the system named is Colo 205 human colonic adenocarcinoma cell line (doxorubicin-sensitive). Briefly: MTT cytotoxic activity assay, Colo 205. Format: cell-based. The conditions noted are these: COLO 205, read-out: Cytotoxic activity, A—Colo 205 IC50.
Excerpt: as §1, §2, §3, §4, §5, §6

The test system is the same in data set [4]. Kind of data set: MTT antiproliferative activity assay, Colo 205. The conditions noted are these: 5 × 10^3 cells/well. Format: cell-based.
Excerpt: as §1, §2, §3, §4, §5, §6

The test system of another data set is S. feltiae. Kind of data set: Nematicidal activity assay. Format: in vivo. To be noted: Steinernema feltiae; for viability at 200 µM: read-out: Viability of the nematodes; for IC50: in Figure 2. How it is done: The soil nematodes S. feltiae were freshly purchased for experiment from Sautter and Stepper GmbH (Ammerbuch, Germany) and stored at 4 °C in the dark. The assay was performed according to the protocols described in the literature. Results were expressed as mean ± standard deviation (SD) and their statistical significance values were determined by one-way ANOVA followed by Tukey’s multiple comparison test. To consider data statistically significant, the p value should be ≤ 0.05.

Data set [5] concerns Colo 320/MDR-LRP human colonic adenocarcinoma cell line (multidrug resistant). Kind of data set: MTT cytotoxic activity assay, Colo 320. Format: cell-based.
Excerpt: as §1, §2, §3, §4, §5, §6

The test system of a further data set is Escherichia coli. Briefly: Antibacterial growth assay, E. coli. Type of data set: cell-based. To be noted: highest concentration (200 µM; not restated for E. coli). How it is done: (§7) The antimicrobial activities of the compounds were determined according to the protocol described in the literature, employing a Universal Microplate Reader, EL800, Biotech Instruments, Inc. Highland Park, Winooski, VT, USA [23, 24, 25].
(§8) In short words, compounds were dissolved in DMSO and later diluted in the adequate growth media to be evaluated at the final concentrations of 50, 100, 150, and 200 µM. Nutrient Luria Bertani (LB) broth, bacterial basic media, Sabouraud Dextrose (SD), and Yeast Peptone Dextrose (YPD) were exploited as media for Escherichia coli, Staphylococcus carnosus, Candida albicans, and Saccharomyces cerevisiae, respectively. In all cases, the final concentration of DMSO was 1% or less. A mixture of penicillin, streptomycin, and amphotericin B (4 U, 0.4 µg/mL and 10 µg/mL, respectively) was employed as positive control for S. carnosus and E. coli, while ketoconazole was utilized as the positive control for C. albicans and S. cerevisiae. The untreated culture in medium was employed as the negative control for each organism; 1% DMSO stock solution was used as a solvent control. All experiments were performed in triplicates and on three independent occasions (n = 9).

Data set [6] in a line: MTT cytotoxic activity assay, MRC-5. Type of data set: cell-based. The conditions noted are these: human.
Excerpt: as §1
MRC-5 human embryonal lung fibroblast cell line (ATCC CCL-171). As previously described, the cells were cultured in Eagle’s Minimal Essential Medium (EMEM, containing 4.5 g/L of glucose) supplemented with a non-essential amino acid mixture, a selection of vitamins and 10% heat-inactivated fetal bovine serum. The cell lines were incubated at 37 °C, in a 5% CO2, 95% air atmosphere.
as §3, §4
Prior to the experiments, the adherent human embryonal lung fibroblasts (MRC-5) were cultured in flat-bottomed microtiter 96-well plates in an EMEM media supplemented with 10% heat-inactivated fetal bovine serum. Cells were seeded at a density of 10.000 cells per well for 24 h before the beginning of the experiment. The cells were cultured at 37 °C in the humidified cell incubator with the 5% of CO2 and 95% air environment. The medium was subsequently removed from the plates containing the cells, and the dilutions of tested compounds, previously made in a separate micro-titration plate, were added to the cells (at final volume equal to 200 μL).
as §6

Another data set relates to Staphylococcus carnosus. Kind of data set: Antibacterial growth assay, S. carnosus. Format: cell-based. To be noted: highest concentration of 200 µM. How it is done:
as §7, §8

Where [7] appears, read: COLO 320, read-out: Cytotoxic activity, B—Colo 320 IC50.
[8] abbreviates: MTT, 1 × 10^4 cells/well, Colo 320, read-out: Cytotoxic activity, B—Colo 320 IC50.
Setting [9] is: MTT, MRC-5 normal lung fibroblasts, read-out: Cytotoxic activity, C—MRC-5 IC50.

Like-named read-outs stand apart in the source and are kept apart here.

P-gp (ABCB1) efflux pump in MDR Colo 320 colon adenocarcinoma cells, sequence (P08183 whole entry): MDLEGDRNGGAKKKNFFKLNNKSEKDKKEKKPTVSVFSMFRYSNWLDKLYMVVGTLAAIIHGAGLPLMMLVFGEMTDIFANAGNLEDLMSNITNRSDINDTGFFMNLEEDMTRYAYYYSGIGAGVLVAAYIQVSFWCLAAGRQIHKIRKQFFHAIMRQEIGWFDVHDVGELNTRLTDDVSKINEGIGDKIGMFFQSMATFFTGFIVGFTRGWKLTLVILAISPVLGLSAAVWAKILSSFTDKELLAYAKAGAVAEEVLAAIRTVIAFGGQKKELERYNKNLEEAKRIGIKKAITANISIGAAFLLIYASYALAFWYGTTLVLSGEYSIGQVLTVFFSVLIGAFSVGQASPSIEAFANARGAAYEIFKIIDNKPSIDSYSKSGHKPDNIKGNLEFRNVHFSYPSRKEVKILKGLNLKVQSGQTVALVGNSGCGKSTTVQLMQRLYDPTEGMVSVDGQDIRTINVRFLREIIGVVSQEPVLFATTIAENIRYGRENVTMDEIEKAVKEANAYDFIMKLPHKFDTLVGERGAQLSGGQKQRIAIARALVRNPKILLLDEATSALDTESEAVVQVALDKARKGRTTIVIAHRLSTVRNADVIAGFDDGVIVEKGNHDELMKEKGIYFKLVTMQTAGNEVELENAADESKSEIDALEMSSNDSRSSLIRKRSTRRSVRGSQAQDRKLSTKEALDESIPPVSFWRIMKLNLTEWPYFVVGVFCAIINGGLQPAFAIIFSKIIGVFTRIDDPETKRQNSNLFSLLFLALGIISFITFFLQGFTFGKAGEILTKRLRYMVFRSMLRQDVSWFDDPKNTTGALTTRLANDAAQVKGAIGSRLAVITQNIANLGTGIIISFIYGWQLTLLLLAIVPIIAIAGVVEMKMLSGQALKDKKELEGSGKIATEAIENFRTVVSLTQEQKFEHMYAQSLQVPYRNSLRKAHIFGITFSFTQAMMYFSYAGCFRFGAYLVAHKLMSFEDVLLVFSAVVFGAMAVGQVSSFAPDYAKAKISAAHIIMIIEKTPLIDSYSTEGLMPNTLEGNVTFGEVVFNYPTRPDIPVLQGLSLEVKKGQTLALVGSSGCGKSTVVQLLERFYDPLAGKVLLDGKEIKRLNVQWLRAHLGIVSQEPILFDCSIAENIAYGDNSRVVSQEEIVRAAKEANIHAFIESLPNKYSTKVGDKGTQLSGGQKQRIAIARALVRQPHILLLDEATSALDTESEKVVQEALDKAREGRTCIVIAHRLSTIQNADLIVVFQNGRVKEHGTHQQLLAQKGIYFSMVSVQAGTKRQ

For `COc1ccc(-c2oc3ccccc3c(=O)c2CC(S(=O)(=O)C(F)(F)F)S(=O)(=O)C(F)(F)F)cc1` [Compound 1], the “FAR (fluorescence activity ratio)” value in data set [1] (2 μM compound) is on record as 1.14; in data set [1] (20 μM) it was 1.53. The “FAR Quotient (%)” value in data set [1] (2 μM compound) is given as 34.92%; in data set [1] (20 μM) it was 46.92%. For the same compound, the IC50 was more than 100 µM in data set [2]; more than 100 µM in [3]; more than 100 µM in data set [4]; 23 ± 0.297 µM in the data set with S. feltiae; more than 100 µM in [5] (setting [7]); more than 100 µM in data set [6]. For the same compound, the viability at 200 µM in the data set on S. feltiae (highest concentration (200 µM)) came to 30%. Further, the inhibition at 200 µM with Escherichia coli came out at 30%.
For the compound `COc1ccc(-c2sc3ccccc3c(=O)c2CC(S(=O)(=O)C(F)(F)F)S(=O)(=O)C(F)(F)F)cc1` [Compound 2], the “FAR (fluorescence activity ratio)” value in [1] (2 μM compound) came out at 0.97; in [1] (20 μM), 1.89. For the same compound, the “FAR Quotient (%)” value in [1] (2 μM compound) amounted to 29.67%; in data set [1] (20 μM), 57.83%. Further, the half-inhibitory concentration (IC50) in [2] was more than 100 µM; in data set [3], more than 100 µM; in data set [4], more than 100 µM; in the data set on S. feltiae, 54.98 ± 0.143 µM; in data set [5] (setting [7]), more than 100 µM; in [6] it was more than 100 µM. Also, the inhibition at 200 µM was found to be 47% with Staphylococcus carnosus and 42% in the data set with Escherichia coli. In addition, the viability at 200 µM in the data set with S. feltiae (highest concentration (200 µM)) came out at 24%.
Take `COc1ccc(-c2[se]c3ccccc3c(=O)c2CC(S(=O)(=O)C(F)(F)F)S(=O)(=O)C(F)(F)F)cc1` [Compound 3]: the “FAR (fluorescence activity ratio)” value in data set [1] (2 μM compound) is 1.06; in [1] (20 μM) it was 1.45. Also, the “FAR Quotient (%)” value in data set [1] (2 μM compound) is 32.58%; in data set [1] (20 μM) it was 44.33%. Besides, the concentration for half-maximal inhibition (IC50) was more than 100 µM in data set [2]; more than 100 µM in data set [4]; 41.94 ± 0.286 µM in the data set on S. feltiae; more than 100 µM in [5] (setting [8]); more than 100 µM in [6] (setting [9]). For the same compound, the inhibition at 200 µM was determined as 57% in the data set with Staphylococcus carnosus and 49% with Escherichia coli. The viability at 200 µM in the data set with S. feltiae was found to be 29%.
Take `COc1ccc2cc(-c3oc4ccccc4c(=O)c3CC(S(=O)(=O)C(F)(F)F)S(=O)(=O)C(F)(F)F)ccc2c1` [Compound 4]: the “FAR (fluorescence activity ratio)” value in data set [1] (2 μM compound) amounted to 1.48; in data set [1] (20 μM) it was 4.81. Moreover, the results for the “FAR Quotient (%)” value in [1] (2 μM compound) and in [1] (20 μM) were 45.42% and 147.50%, respectively. The “Increase in efflux pump inhibitory activity of naphthyl vs corresponding phenyl derivative” value in data set [1] is 3.14 fold. In addition, the 50% inhibitory concentration (IC50) in [2], in data set [3], in [4], in [5] (setting [7]) and in data set [6] was more than 100 µM each time. In addition, the inhibition at 200 µM in the data set on Staphylococcus carnosus was determined as 37%; in the data set with Escherichia coli, 45%.
Take `COc1ccc2cc(-c3sc4ccccc4c(=O)c3CC(S(=O)(=O)C(F)(F)F)S(=O)(=O)C(F)(F)F)ccc2c1` [Compound 5]: the “FAR (fluorescence activity ratio)” value in data set [1] (2 μM compound) came out at 1.95; in data set [1] (20 μM) it was 8.61. Moreover, the “FAR Quotient (%)” value in data set [1] (2 μM compound) was found to be 59.92%; in data set [1] (20 μM) it was 264.17%. The “P-gp inhibition relative to the reference verapamil” value in [1] (20 µM) came out at 2.64 fold. In data set [1], the “Increase in efflux pump inhibitory activity of naphthyl vs corresponding phenyl derivative” value is on record as 4.57 fold. Moreover, the IC50 in [2], in data set [3], in [4], in data set [5] (setting [7]) and in data set [6] was more than 100 µM throughout. Besides, the inhibition at 200 µM with Staphylococcus carnosus is 47%; with Escherichia coli, 39%.
As for `COc1ccc2cc(-c3[se]c4ccccc4c(=O)c3CC(S(=O)(=O)C(F)(F)F)S(=O)(=O)C(F)(F)F)ccc2c1` [Compound 6, bis(triflyl) selenoflavone], the “FAR (fluorescence activity ratio)” value in data set [1] (2 μM compound) was determined as 1.14; in data set [1] (20 μM), 4.67. Besides, the “FAR Quotient (%)” value was determined as 34.92% in [1] (2 μM compound) and 143.33% in data set [1] (20 μM). The “Increase in efflux pump inhibitory activity of naphthyl vs corresponding phenyl derivative” value in data set [1] is given as 3.23 fold. Besides, the IC50 in data set [2] is more than 100 µM; in [4], more than 100 µM; with S. feltiae, 80.62 ± 0.142 µM; in [5] (setting [8]), more than 100 µM; in data set [6] (setting [9]) it was more than 100 µM. For the same compound, the viability at 200 µM in the data set with S. feltiae is 26%.
Turning to `COc1cccc2c1C(=O)c1c(O)c3c(c(O)c1C2=O)C[C@@](O)(C(=O)CO)C[C@@H]3O[C@H]1C[C@H](N)[C@H](O)[C@H](C)O1` [DOXO, Doxorubicin, reference compound], the IC50 was 0.14 µM in [2]; 1.56 µM in data set [3]; 0.24 µM in data set [4]; 6.45 µM in data set [5] (setting [8]); more than 10 µM in data set [6] (MRC-5 embryonal lung fibroblast cells, MTT, MRC-5 normal lung fibroblasts, read-out: Cytotoxic activity, C—MRC-5 IC50).
